Source: ChEMBL document CHEMBL1121563, “8-Hydroxyanthracyclinones from epsilon-rhodomycinone” (1980)
Activity calls are given as the source filed them. The rule behind the calls is not given here.

Assays:
Escherichia coli [1] = test: Compound is evaluated for lambda-phage induction activity in Escherichia coli (dose at 12.5 ug/mL); type: functional
Escherichia coli [2] = test: Compound is evaluated for lambda-phage induction activity in Escherichia coli (dose at 25 ug/mL); type: functional
Escherichia coli [3] = test: Compound is evaluated for lambda-phage induction activity in Escherichia coli (dose at 3.1 ug/mL); type: functional
Escherichia coli [4] = test: Compound is evaluated for lambda-phage induction activity in Escherichia coli (dose at 50 ug/mL); type: functional
Escherichia coli [5] = test: Compound is evaluated for lambda-phage induction activity in Escherichia coli (dose at 6.2 ug/mL); type: functional
Escherichia coli [6] = test: Compound is evaluated for lambda-phage induction activity in Escherichia coli (dose at 50 ug/mL); Toxic to culture; type: functional
Bacillus subtilis = test: Compound was tested for its lambda-phage induction activity against Bacillus subtilis in a disk plate assay at concentration of dose of 0.8 ug/mL; Active; type: functional, organism-based
Escherichia coli [7] = test: Compound is evaluated for lambda-phage induction activity in Escherichia coli (dose at 0.8 ug/mL); type: functional
Escherichia coli [8] = test: Compound is evaluated for lambda-phage induction activity in Escherichia coli (dose at 1.6 ug/mL); type: functional
Escherichia coli [9] = test: Compound is evaluated for lambda-phage induction activity in Escherichia coli (dose at 6.2 ug/mL); Toxic to culture; type: functional

SMILES	Activity (Escherichia coli [1])	Activity (Escherichia coli [2])	Activity (Escherichia coli [3])	Activity (Escherichia coli [4])	Activity (Escherichia coli [5])	Activity (Escherichia coli [6])	Activity (Bacillus subtilis)	Activity (Escherichia coli [7])	Activity (Escherichia coli [8])	Activity (Escherichia coli [9])
CC[C@]12O[C@H]1Cc1c(O)c3c(c(O)c1[C@H]2C(=O)OC)C(=O)c1cccc(O)c1C3=O	1.5	1.9	1.2	2.9	1.3					
CC[C@@]12O[C@@H]1Cc1c(O)c3c(c(O)c1[C@H]2C(=O)OC)C(=O)c1cccc(O)c1C3=O	1.1	2	1.2	3	1.4					
CC[C@@]1(O)C[C@H](O)c2c(O)c3c(c(O)c2[C@H]1C(=O)OC)C(=O)c1cccc(O)c1C3=O	1.5	1.8				2.9				
CCC1=CCc2c(O)c3c(c(O)c2[C@H]1C(=O)OC)C(=O)c1cccc(O)c1C3=O	6	9.3		13.4	2.8					
CC(=O)[C@]1(O)Cc2c(O)c3c(c(O)c2[C@@H](O[C@H]2C[C@H](N)[C@H](O)[C@H](C)O2)C1)C(=O)c1c(O)cccc1C3=O [CARUBICIN]			6.2		7		Active	2.2	3	
COc1cccc2c1C(=O)c1c(O)c3c(c(O)c1C2=O)C[C@@](O)(C(C)=O)C[C@@H]3O[C@H]1C[C@H](N)[C@H](O)[C@H](C)O1 [DAUNORUBICIN]			11.9				Active	3.1	5.3	11.1
CC[C@H]1CCc2c(O)c3c(c(O)c2[C@H]1C(=O)OC)C(=O)c1cccc(O)c1C3=O	1.2	1.8	1	2.4	1.3					
